Assay results as given in patent US7378274B2, “Regulatory nucleic acid for the ABC1 gene, molecules modifying its activity and therapeutic uses” (Aventis Pharma S.A., priority 2000, dated 2008).

How the values were obtained:
USF1 and USF2 = experiment: Western analysis of USF1 and USF2 in RAW cell nuclear extracts; type: cell-based; settings: RAW cells stimulated with cholesterol or oxysterols
Procedure: RAW cell nuclear extracts (35 μg protein per lane) from cells stimulated with cholesterol or 22-R-hydroxycholesterol were loaded onto NuPage Bis-Tris 4-12% gradient gels (Invitrogen, Carlsbad, Calif.) and run according to manufacturer's specifications. Proteins were transferred to Immobilon-P PVDF membranes (Millipore Corp, Bedford, Mass.). Antibodies (2 mg/ml stock) were from Santa Cruz Biotechnology, Inc. (Santa Cruz, Calif.) and were used according to manufacturer's specifications. Anti-USF1 C20X (catalog number sc-229X) antibody was used at a dilution of 1/600 and anti-USF2 antibodies C20X (catalog number sc862X) and N18X (catalog number sc861X) were used at a dilution of 1/1000.

human ABC1 promoter = experiment: Luciferase reporter under control of the -200 bp human ABC1 promoter (wild type or E-box mutant), transfected RAW 264.7 cells; type: cell-based; settings: 24 hours, 10 μM 9CRA, 2 μg/ml 22(R)-HOch
Source text: Plasmids containing mutant SP1, AP1, E-box, LXR and deleted E-box fragments were constructed by site-directed mutagenesis using the overlap PCR method and the PXP1 −995 to +120 bp construct (Previato et al., JBC, 1991, 266:18958-63) as template. The primers listed below were used to amplify −200 to +44 bp of the human ABC1 promoter. Upper-case letters represent wild-type sequence whereas lower-case letters represent mutant sequence.
S224-HindIII and 44-HindIII were the upstream and downstream primers used for overlap PCR. The Hind III sites are underlined. The resulting fragments which spanned −200 to +44 of the human ABC1 gene were ligated into the HindIII site of the PXP1 luciferase reporter plasmid (Nordeen et al., Biotechniques, 1988, 6:454-457). All constructs were confirmed by sequencing.
Murine macrophage RAW 264.7 cells and human embryonic kidney 293 cells (American Type Culture Collection, Rockville, Md.) were grown in Dulbecco's modified Eagle's medium (DMEM) with 10% fetal calf serum (FCS). Approximately 1.5×10^5 cells were plated in 12-well plates (Costar, Corning, N.Y.), grown to 50-70% confluency and cotransfected with 1.5 μg of the ABC1 promoter-luciferase plasmid and 0.5 μg of the β-galactosidase vector (pCMVβ;Clontech, Palo Alto, Calif.) by using the Superfectin Reagent Kit (Qiagen, Valencia, Calif.). […]

[1] = system: E-box in the human ABC1 gene promoter; experiment: Gel mobility shift assay of E-box (EB) probe with RAW cell nuclear extracts; type: binding; settings: nuclear extracts of stimulated versus unstimulated RAW cells
Source text: Three double-stranded human ABC1 promoter fragments (Fragment A spanning −171 to −71 bp; Fragment EB spanning −156 to −130 bp and Fragment EB spanning −156 to −130 bp) were end-labeled with […] using T4 polynucleotide kinase (Lofstrand, Gaithersburg Md.). Nuclear extracts were isolated from unstimulated RAW 264.7 cell and HepG2 cell as well as RAW 264.7 cells after stimulation with the same concentrations of cholesterol and 22(R)-Hch shown above (Paragon Bioservices Inc. Baltimore, Md.). One ng (10,000 cpm) of radiolabelled probe was added to 2.5 μg nuclear extract in 20 ul of a 20 mM TRIS gel shift buffer (pH 7.9) containing 60 mM KCl, 0.2 mM EDTA, 0.5 mM DTT, 0.25 mM PMS, 1.3 mM MgCl, 10% glycerol, 3% Ficoll and 3 μg of double-stranded poly (dldC) as described (Previato et al., J Biol Chem, 1991, 266:18958-18963) and incubated for 10 minutes on ice followed by 10 minutes at room temperature. The incubated mixture was loaded on a 6% polyacrylamide gel in 0.25×TBE buffer and electrophoresed at 100 V for 90 min followed by autoradiography. For competition assays, nuclear extracts were preincubated for 10 minutes on ice in a 20 μl reaction mixture in the presence or absence of a 100-200-fold excess of double-stranded DNA competitors for Sp1 (−173 to −155 bp), AP1 (−135 to −155 bp), LXR (−54 to −69 bp) and E-box (−158 to −136 bp) before addition of probe. […]

[2] = system: regulatory nucleic acid for the human ABC1 gene; experiment: Luciferase reporter under control of the -995 to +120 regulatory nucleic acid for the human ABC1 gene, transfected Hepa1-6 cells; type: cell-based
Source text: The region of the regulatory acid for the human ABC1 gene which ranges from the nucleotide at position −-995 up to the nucleotide at position +120, with respect to the transcription start site, was amplified by the PCR technique, with the aid of the following pair of primers: • forward primer S995 (SEQ ID No. 12), of sequence 5′-TTGCCGTCGACTGTTTTGGGTAGTTT-3′; and • reverse primer +220R (SEQ ID No. 13), of sequence 5′-GCCCTGTCGACCGGCTCTGTTGGT-3′, • From human genomic DNA present in a BAC vector from a collection of human BAC vectors.
The DNA fragment amplified was digested with the restriction endonuclease Sal 1, and then inserted into the vector PXP1 described by Nordeen et al. (1988, BioTechniques, 6: 454-457), at the Sal 1 restriction site of this vector.
Cells of the Hepa1-6 line (ATCC, Rockville, Md., USA) were cultured in the medium E-MEM (Minimum Essential Medium with Earle's Salts), to which 10% (v/v) of fetal calf serum (BioWhittaker, Walkersville, Md.) was added.
Approximately 1.5×10^5 cells were distributed into each of the wells of a 12-well (2.5 cm) culture plate, and were cultured until approximately 50 to 70% confluence, and were then cotransformed with 1 μg of the plasmid Sal-Lucif and 0.5 μg of the control vector pBetagel (CloneTech Laboratories Inc., Palo Alto, Calif., USA) using the Superfectin Reagent Kit pack (QIAGEN Inc., Valencia, Calif., USA). Two hours after adding the DNA, the culture medium was removed, and replaced with complete AMEM (Minimum Essential Medium Eagle's Alpha Modification) medium. […]
Freshly thawed aliquot fractions were used to quantify the proteins, using the MicroBCA Kit pack (Pierce, Rockford, Ill., USA), as well as to quantify the luciferase and beta-galactosidase production, using, respectively, the Tropix Luciferase Assay Kit and Galacto-Light Plus Kit packs. […]

Row | Compound | Expression of USF immunoreactive bands (43 and 44 KDa) (USF1 and USF2) | Effect on ABC1 gene transcription (luciferase reporter) (human ABC1 promoter) | Gel shift banding patterns with EB probe [1] | Luciferase activity ([2]; Hepa1-6 cells, in the presence of 50 μg/ml cholesterol, cells recovered 16 hours after medium change) [RLU] | Increase in the activity ([2]; in the presence versus absence of cholesterol) | Normalized activity ([2]; luciferase normalized to β-galactosidase, in the presence of 50 μg/ml cholesterol)
1 | CC(C)CC[C@@H](O)[C@@H](C)[C@H]1CC[C@H]2[C@@H]3CC=C4C[C@@H](O)CC[C@]4(C)[C@H]3CC[C@]12C [oxysterols, 22-(R)-hydroxycholesterol] | not altered | stimulatory effect | No differences |  |  | 
2 | CC1=C(/C=C/C(C)=C\C=C\C(C)=C\C(=O)O)C(C)(C)CCC1 [CRA, 9-cis-retinoic acid] |  | stimulatory effect |  |  |  | 
3 | CC(C)CCC[C@@H](C)[C@H]1CC[C@H]2[C@@H]3CC=C4C[C@@H](O)CC[C@]4(C)[C@H]3CC[C@]12C [cholesterol] | not altered |  | No differences | 500000 | 1.82 | 13.25
